Data: ChEMBL document CHEMBL4800729 (2021)

Tests used:
[1] = target: Tyrosine-protein kinase ABL2 (Homo sapiens) (UniProt P42684); experiment: Arg(h) Millipore kinase panel; settings: Compound concentration 1.0 uM
[2] = target: Serine-protein kinase ATM (Homo sapiens) (UniProt Q13315); experiment: ATM(h) Millipore kinase panel; settings: Compound concentration 1.0 uM
[3] = target: Bone morphogenetic protein receptor type-2 (Homo sapiens) (UniProt Q13873); experiment: BMPR2(h) Millipore kinase panel; settings: Compound concentration 1.0 uM
[4] = target: Protein-tyrosine kinase 6 (Homo sapiens) (UniProt Q13882); experiment: BRK(h) Millipore kinase panel; settings: Compound concentration 1.0 uM
[5] = target: Serine/threonine-protein kinase BRSK2 (Homo sapiens) (UniProt Q8IWQ3); experiment: BrSK2(h) Millipore kinase panel; settings: Compound concentration 1.0 uM
Serine/threonine-protein kinase BRSK2 (Homo sapiens), sequence (Q8IWQ3 whole entry): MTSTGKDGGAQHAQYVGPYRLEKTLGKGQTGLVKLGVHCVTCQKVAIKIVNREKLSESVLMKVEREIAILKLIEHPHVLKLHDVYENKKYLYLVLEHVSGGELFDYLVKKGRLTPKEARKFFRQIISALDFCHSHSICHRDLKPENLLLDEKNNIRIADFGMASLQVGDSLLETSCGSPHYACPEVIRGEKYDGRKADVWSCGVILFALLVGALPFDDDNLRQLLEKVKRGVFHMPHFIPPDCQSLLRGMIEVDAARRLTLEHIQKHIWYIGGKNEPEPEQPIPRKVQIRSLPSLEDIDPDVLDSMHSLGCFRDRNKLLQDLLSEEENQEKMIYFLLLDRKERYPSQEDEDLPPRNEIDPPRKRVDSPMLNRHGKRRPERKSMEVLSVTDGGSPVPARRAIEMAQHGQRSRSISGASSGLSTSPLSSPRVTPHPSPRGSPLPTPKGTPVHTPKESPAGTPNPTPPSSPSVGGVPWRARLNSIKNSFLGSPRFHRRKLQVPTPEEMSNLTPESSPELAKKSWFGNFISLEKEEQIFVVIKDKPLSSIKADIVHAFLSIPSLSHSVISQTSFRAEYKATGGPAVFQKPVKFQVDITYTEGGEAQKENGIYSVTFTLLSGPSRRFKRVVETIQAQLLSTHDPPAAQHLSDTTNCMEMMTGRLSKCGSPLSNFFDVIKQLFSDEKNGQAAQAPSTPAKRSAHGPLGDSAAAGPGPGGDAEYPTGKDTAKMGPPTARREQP

[6] = target: Calcium/calmodulin-dependent protein kinase type 1G (Homo sapiens) (UniProt Q96NX5); experiment: CaMKIgamma(h) Millipore kinase panel; settings: Compound concentration 1.0 uM
[7] = target: Cyclin-dependent kinase-like 3 (Homo sapiens) (UniProt Q8IVW4); experiment: CDKL3(h) Millipore kinase panel; settings: Compound concentration 1.0 uM
[8] = target: Casein kinase I isoform gamma-1 (Homo sapiens) (UniProt Q9HCP0); experiment: CK1gamma1(h) Millipore kinase panel; settings: Compound concentration 1.0 uM
[9] = target: Dual specificity protein kinase CLK4 (Homo sapiens) (UniProt Q9HAZ1); experiment: CLK4(h) Millipore kinase panel; settings: Compound concentration 1.0 uM
[10] = target: Myotonin-protein kinase (Homo sapiens) (UniProt Q09013); experiment: DMPK(h) Millipore kinase panel; settings: Compound concentration 1.0 uM
[11] = target: Serine/threonine-protein kinase 17A (Homo sapiens) (UniProt Q9UEE5); experiment: DRAK1(h) Millipore kinase panel; settings: Compound concentration 1.0 uM
[12] = target: Dual specificity tyrosine-phosphorylation-regulated kinase 2 (Homo sapiens) (UniProt Q92630); experiment: DYRK2(h) Millipore kinase panel; settings: Compound concentration 1.0 uM
[13] = target: Epidermal growth factor receptor (Homo sapiens) (UniProt P00533); experiment: EGFR(h) Millipore kinase panel; settings: Compound concentration 1.0 uM
[14] = target: Ephrin type-A receptor 3 (Homo sapiens) (UniProt P29320); experiment: EphA3(h) Millipore kinase panel; settings: Compound concentration 1.0 uM
[15] = target: Receptor tyrosine-protein kinase erbB-2 (Homo sapiens) (UniProt P04626); experiment: ErbB2(h) Millipore kinase panel; settings: Compound concentration 1.0 uM
Receptor tyrosine-protein kinase erbB-2 (Homo sapiens), sequence (P04626 whole entry): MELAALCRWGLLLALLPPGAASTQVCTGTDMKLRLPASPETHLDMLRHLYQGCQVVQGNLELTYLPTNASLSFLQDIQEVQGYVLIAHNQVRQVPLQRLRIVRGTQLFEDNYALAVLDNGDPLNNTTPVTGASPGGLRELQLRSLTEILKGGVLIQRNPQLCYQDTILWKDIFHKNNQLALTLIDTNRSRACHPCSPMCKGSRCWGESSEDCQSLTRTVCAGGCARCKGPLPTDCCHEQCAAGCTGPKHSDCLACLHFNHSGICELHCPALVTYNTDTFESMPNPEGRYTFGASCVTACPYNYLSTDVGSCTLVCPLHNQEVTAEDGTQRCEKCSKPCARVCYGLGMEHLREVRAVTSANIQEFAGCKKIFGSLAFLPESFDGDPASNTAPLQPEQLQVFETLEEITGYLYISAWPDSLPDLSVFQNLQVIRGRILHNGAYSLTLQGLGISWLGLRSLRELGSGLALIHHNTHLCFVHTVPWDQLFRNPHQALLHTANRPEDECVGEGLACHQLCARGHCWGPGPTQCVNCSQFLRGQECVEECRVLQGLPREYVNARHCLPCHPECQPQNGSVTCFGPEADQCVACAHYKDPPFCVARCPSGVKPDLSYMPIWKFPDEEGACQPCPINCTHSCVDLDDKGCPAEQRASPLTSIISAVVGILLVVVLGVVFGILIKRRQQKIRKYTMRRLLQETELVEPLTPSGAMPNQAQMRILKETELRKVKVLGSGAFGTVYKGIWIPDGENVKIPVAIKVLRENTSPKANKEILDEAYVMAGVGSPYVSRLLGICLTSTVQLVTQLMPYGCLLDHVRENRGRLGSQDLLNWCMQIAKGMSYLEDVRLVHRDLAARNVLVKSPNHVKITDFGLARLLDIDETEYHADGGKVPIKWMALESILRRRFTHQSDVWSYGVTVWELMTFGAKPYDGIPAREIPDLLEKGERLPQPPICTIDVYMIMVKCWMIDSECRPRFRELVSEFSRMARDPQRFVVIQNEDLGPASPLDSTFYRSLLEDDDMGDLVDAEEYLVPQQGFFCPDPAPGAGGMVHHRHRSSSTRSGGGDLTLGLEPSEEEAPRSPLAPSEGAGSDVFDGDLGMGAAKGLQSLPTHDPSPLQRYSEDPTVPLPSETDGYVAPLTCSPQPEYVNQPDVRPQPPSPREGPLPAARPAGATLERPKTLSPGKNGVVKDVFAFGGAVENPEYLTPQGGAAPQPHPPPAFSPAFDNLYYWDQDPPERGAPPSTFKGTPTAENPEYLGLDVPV

[16] = target: Inhibitor of nuclear factor kappa-B kinase subunit epsilon (Homo sapiens) (UniProt Q14164); experiment: IKKepsilon(h Millipore kinase panel; settings: Compound concentration 1.0 uM
[17] = target: Serine/threonine-protein kinase LATS1 (Homo sapiens) (UniProt O95835); experiment: LATS1(h) Millipore kinase panel; settings: Compound concentration 1.0 uM
[18] = target: MAP/microtubule affinity-regulating kinase 3 (Homo sapiens) (UniProt P27448); experiment: MARK3(h) Millipore kinase panel; settings: Compound concentration 1.0 uM
[19] = target: Misshapen-like kinase 1 (Homo sapiens) (UniProt Q8N4C8); experiment: MINK(h) Millipore kinase panel; settings: Compound concentration 1.0 uM
[20] = target: MAP kinase-interacting serine/threonine-protein kinase 2 (Homo sapiens) (UniProt Q9HBH9); experiment: Mnk2(h) Millipore kinase panel; settings: Compound concentration 1.0 uM
[21] = target: Ribosomal protein S6 kinase alpha-4 (Homo sapiens) (UniProt O75676); experiment: MSK2(h) Millipore kinase panel; settings: Compound concentration 1.0 uM
[22] = target: Serine/threonine-protein kinase mTOR (Homo sapiens) (UniProt P42345); experiment: mTOR(h) Millipore kinase panel; settings: Compound concentration 1.0 uM
[23] = target: Serine/threonine-protein kinase Nek4 (Homo sapiens) (UniProt P51957); experiment: NEK4(h) Millipore kinase panel; settings: Compound concentration 1.0 uM
[24] = target: [Pyruvate dehydrogenase (acetyl-transferring)] kinase isozyme 2, mitochondrial (Homo sapiens) (UniProt Q15119); experiment: PDHK2(h) Millipore kinase panel; settings: Compound concentration 1.0 uM
[25] = target: Serine/threonine-protein kinase pim-3 (Homo sapiens) (UniProt Q86V86); experiment: Pim-3(h) Millipore kinase panel; settings: Compound concentration 1.0 uM
[26] = target: cGMP-dependent protein kinase 1 (Homo sapiens) (UniProt Q13976); experiment: PKG1alpha(h) Millipore kinase panel; settings: Compound concentration 1.0 uM
[27] = target: Serine/threonine-protein kinase N1 (Homo sapiens) (UniProt Q16512); experiment: PRK1(h) Millipore kinase panel; settings: Compound concentration 1.0 uM
Serine/threonine-protein kinase N1 (Homo sapiens), sequence (Q16512 2-942 limits assumed): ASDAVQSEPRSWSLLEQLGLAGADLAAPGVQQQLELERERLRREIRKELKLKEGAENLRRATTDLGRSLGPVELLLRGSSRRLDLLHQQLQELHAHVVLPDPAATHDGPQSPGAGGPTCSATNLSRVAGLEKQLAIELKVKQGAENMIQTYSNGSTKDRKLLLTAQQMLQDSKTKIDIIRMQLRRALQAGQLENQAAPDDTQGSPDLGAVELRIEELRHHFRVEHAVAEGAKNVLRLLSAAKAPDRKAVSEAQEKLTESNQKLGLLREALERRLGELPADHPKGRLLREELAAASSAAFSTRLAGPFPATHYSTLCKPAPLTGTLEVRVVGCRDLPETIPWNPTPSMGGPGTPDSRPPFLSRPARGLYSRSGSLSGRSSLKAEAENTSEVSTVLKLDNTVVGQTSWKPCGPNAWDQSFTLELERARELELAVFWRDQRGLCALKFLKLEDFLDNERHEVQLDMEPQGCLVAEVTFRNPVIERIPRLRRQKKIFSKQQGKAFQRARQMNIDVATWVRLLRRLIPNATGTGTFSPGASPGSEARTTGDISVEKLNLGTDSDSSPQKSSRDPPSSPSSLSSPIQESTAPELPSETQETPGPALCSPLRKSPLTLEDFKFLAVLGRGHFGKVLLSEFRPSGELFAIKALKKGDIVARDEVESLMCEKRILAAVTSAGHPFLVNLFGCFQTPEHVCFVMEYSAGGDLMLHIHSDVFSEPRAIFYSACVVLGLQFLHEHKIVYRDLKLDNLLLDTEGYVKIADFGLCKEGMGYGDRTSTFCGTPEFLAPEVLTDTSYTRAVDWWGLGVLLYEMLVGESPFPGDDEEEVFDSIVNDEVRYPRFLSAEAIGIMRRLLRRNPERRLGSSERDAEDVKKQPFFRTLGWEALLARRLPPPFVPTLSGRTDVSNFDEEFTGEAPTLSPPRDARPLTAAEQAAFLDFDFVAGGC

[28] = target: Serine/threonine-protein kinase Sgk1 (Homo sapiens) (UniProt O00141); experiment: SGK(h) Millipore kinase panel; settings: Compound concentration 1.0 uM
[29] = target: Serine/threonine-protein kinase PLK2 (Homo sapiens) (UniProt Q9NYY3); experiment: Snk(h) Millipore kinase panel; settings: Compound concentration 1.0 uM
Serine/threonine-protein kinase PLK2 (Homo sapiens), sequence (Q9NYY3 whole entry, looked up): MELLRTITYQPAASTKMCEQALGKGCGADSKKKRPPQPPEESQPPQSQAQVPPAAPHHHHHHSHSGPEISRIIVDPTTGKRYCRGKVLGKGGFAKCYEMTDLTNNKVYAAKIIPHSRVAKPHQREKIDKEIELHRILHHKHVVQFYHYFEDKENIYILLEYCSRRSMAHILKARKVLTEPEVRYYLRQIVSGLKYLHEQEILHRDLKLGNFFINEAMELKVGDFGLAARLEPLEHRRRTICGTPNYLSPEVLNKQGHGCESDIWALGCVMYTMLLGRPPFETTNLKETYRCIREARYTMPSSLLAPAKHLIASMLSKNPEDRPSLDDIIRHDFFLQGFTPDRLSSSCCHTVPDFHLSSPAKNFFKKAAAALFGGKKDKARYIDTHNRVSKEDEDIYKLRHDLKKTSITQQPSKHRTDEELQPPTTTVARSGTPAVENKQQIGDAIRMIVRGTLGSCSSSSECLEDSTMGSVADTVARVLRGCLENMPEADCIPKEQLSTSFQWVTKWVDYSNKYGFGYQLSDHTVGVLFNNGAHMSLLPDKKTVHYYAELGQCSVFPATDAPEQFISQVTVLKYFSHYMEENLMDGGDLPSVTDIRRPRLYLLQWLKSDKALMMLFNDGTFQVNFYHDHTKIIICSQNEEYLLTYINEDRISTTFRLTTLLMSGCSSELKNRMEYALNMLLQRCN

[30] = target: Serine/threonine-protein kinase 25 (Homo sapiens) (UniProt O00506); experiment: STK25(h) Millipore kinase panel; settings: Compound concentration 1.0 uM
[31] = target: Serine/threonine-protein kinase 32A (Homo sapiens) (UniProt Q8WU08); experiment: STK32A(h) Millipore kinase panel; settings: Compound concentration 1.0 uM
[32] = target: Serine/threonine-protein kinase 32C (Homo sapiens) (UniProt Q86UX6); experiment: STK32C(h) Millipore kinase panel; settings: Compound concentration 1.0 uM
[33] = target: Tyrosine-protein kinase Tec (Homo sapiens) (UniProt P42680); experiment: Tec(h) activated Millipore kinase panel; settings: Compound concentration 1.0 uM
[34] = target: TGF-beta receptor type-2 (Homo sapiens) (UniProt P37173); experiment: TGFBR2(h) Millipore kinase panel; settings: Compound concentration 1.0 uM
TGF-beta receptor type-2 (Homo sapiens), sequence (P37173 whole entry): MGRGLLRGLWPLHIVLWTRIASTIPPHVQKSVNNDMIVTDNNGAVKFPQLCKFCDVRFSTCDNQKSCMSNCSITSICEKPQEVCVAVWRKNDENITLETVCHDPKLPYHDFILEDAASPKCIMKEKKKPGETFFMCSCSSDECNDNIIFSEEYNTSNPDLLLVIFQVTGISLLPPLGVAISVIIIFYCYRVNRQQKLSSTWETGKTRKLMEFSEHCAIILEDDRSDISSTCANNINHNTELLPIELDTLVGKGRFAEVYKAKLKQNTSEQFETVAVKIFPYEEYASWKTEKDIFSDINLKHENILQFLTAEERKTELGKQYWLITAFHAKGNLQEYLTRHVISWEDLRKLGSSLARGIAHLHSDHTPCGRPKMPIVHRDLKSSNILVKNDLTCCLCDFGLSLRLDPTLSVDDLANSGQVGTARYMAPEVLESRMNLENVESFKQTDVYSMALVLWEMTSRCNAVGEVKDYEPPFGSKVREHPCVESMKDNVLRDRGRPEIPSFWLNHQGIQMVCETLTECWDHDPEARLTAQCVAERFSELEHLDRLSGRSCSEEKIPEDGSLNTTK

[35] = target: Testis-specific serine/threonine-protein kinase 3 (Homo sapiens) (UniProt Q96PN8); experiment: TSSK3(h) Millipore kinase panel; settings: Compound concentration 1.0 uM
[36] = target: Death-associated protein kinase 3 (Homo sapiens) (UniProt O43293); experiment: ZIPK(h) Millipore kinase panel; settings: Compound concentration 1.0 uM
Death-associated protein kinase 3 (Homo sapiens), sequence (O43293 whole entry, looked up): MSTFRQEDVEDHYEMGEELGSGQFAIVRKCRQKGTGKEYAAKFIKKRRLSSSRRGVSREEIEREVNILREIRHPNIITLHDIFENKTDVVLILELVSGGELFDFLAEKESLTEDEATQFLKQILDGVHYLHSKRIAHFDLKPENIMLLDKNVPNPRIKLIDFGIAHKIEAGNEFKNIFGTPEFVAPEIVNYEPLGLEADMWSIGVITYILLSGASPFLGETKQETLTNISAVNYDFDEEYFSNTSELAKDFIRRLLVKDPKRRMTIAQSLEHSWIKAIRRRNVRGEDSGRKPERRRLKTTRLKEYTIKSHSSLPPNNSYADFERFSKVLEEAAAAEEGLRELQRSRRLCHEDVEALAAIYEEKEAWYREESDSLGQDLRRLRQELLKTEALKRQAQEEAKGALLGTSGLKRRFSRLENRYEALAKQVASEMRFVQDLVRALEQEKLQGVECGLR

[37] = target: CDK12/Cyclin K (Homo sapiens) (UniProt O75909+Q9NYV4); experiment: CDK12/cyclinK(h) Millipore kinase panel; format: protein-complex assay; settings: Compound concentration 1.0 uM
[38] = target: CDK6/cyclin D3 (Homo sapiens) (UniProt P30281+Q00534); experiment: CDK6/cyclinD3(h) Millipore kinase panel; format: protein-complex assay; settings: Compound concentration 1.0 uM
[39] = target: 5-hydroxytryptamine receptor 1D (Homo sapiens) (UniProt P28221); settings: Compound concentration 10.0 uM
[40] = target: 5-hydroxytryptamine receptor 6 (Homo sapiens, UniProt P50406); settings: Compound concentration 10.0 uM
[41] = target: Histamine H1 receptor (Homo sapiens) (UniProt P35367); settings: Compound concentration 10.0 uM
[42] = target: Muscarinic acetylcholine receptor M3 (Homo sapiens) (UniProt P20309); settings: Compound concentration 10.0 uM
[43] = target: D(3) dopamine receptor (Homo sapiens) (UniProt P35462); settings: Compound concentration 10.0 uM
[44] = target: Glutamate NMDA receptor (Rattus norvegicus) (UniProt P35439+Q00959+Q00960+Q00961+Q62645+Q8VHN2+Q9R1M7); settings: Compound concentration 10.0 uM
[45] = target: Muscarinic acetylcholine receptor M2 (Homo sapiens) (UniProt P08172); settings: Compound concentration 10.0 uM
[46] = target: Delta-type opioid receptor (Homo sapiens) (UniProt P41143); settings: Compound concentration 10.0 uM
[47] = target: Glutamate receptor 2 (Homo sapiens) (UniProt P42262); settings: Rattus norvegicus; Compound concentration 10.0 uM
[48] = target: 5-hydroxytryptamine receptor 2A (Homo sapiens) (UniProt P28223); settings: Compound concentration 10.0 uM

Measured: inhibition

CC[C@@H](Nc1c(C#N)c(-c2ccc(-c3cccc(C)c3F)cc2)nc2cnccc12)C(=O)O [BAY-091]
inactive: [1] 7.75% | [2] 0.32% | [3] 4.45% | [4] 8.07% | [5] 3.83% | [6] 14.4% | [7] 8.18% | [8] 8.17% | [9] 18.8% | [10] 15.1% | [11] 9.65% | [12] 19.1% | [13] 10.8% | [14] 4.71% | [15] 8.53% | [16] 10.2% | [17] 8.31% | [18] -4.67% | [19] 3.07% | [20] 3.39% | [21] -3.96% | [22] 14.8% | [23] 32.1% | [24] 12.4% | [25] 1.67% | [26] 6.77% | [27] 5.64% | [28] -6.56% | [29] 7.48% | [30] 3.01% | [31] 16% | [32] 5.49% | [33] 4.62% | [34] 19.3% | [35] 8.88% | [36] 0.91% | [37] 10.3% | [38] 8.28% | [39] 21.2% | [40] -2.99% | [41] 12.3% | [42] -8.52% | [43] 27% | [44] -3% | [45] 8% | [46] 25% | [47] -4% | [48] 19%
